Assay results reported in BindingDB's records for doi:10.1021/cb500820b (University of Massachusetts Medical School, 2015).

Target: C-terminal-binding protein 2 (Homo sapiens, UniProt P56545)
Assay: CtBP2 ITC
Details: pH 8.5
Description: Five mM MTOB was utilized for competitive displacement assays.

Kd: 2960 µM
SMILES: CSCCC(=O)C(=O)O [4-Methylthio 2-oxobutyric acid (MTOB)]
